Laboratory results reported in patent US10118935B2, “Melampomagnolide B dimers” (priority 2014, dated 2018).

Columns and labels:
[1] = system: LOX IMVI; experiment: NCI 60 cell line five dose, Melanoma
[2] = system: HCT-116; experiment: NCI 60 cell line five dose, Colon Cancer
[3] = system: SR; experiment: NCI 60 cell line five dose, Leukemia
[4] = system: OVCAR-4; experiment: NCI 60 cell line five dose, Ovarian Cancer
[5] = system: BT-549; experiment: NCI 60 cell line five dose, Breast Cancer
[6] = system: T-47D; experiment: NCI 60 cell line five dose, Breast Cancer
[7] = system: A549/ATCC; experiment: NCI 60 cell line five dose, Non-Small Cell Lung Cancer
[8] = system: NCI-H226; experiment: as above
[9] = system: SF-539; experiment: NCI 60 cell line five dose, CNS Cancer
[10] = system: NCI/ADR-RES; experiment: NCI 60 cell line five dose, Ovarian Cancer; conditions: NCI/ADR-RES
[11] = system: UACC-257; experiment: NCI 60 cell line five dose, Melanoma
[12] = system: SF-295; experiment: NCI 60 cell line five dose, CNS Cancer
[13] = system: NCI-H23; experiment: NCI 60 cell line five dose, Non-Small Cell Lung Cancer
[14] = system: SN12C; experiment: NCI 60 cell line five dose, Renal Cancer
[15] = system: NCI-H460; experiment: NCI 60 cell line five dose, Non-Small Cell Lung Cancer
[16] = system: MALME-3M; experiment: NCI 60 cell line five dose, Melanoma; conditions: MALME-3M
[17] = system: HOP-92; experiment: NCI 60 cell line five dose, Non-Small Cell Lung Cancer
[18] = system: OVCAR-3; experiment: NCI 60 cell line five dose, Ovarian Cancer
[19] = system: COLO 205; experiment: NCI 60 cell line five dose, Colon Cancer
[20] = system: HCC-2998; experiment: NCI 60 cell line five dose, Colon Cancer
[21] = system: CAKI-1; experiment: NCI 60 cell line five dose, Renal Cancer
[22] = system: A498; experiment: NCI 60 cell line five dose, Renal Cancer
[23] = system: U251; experiment: NCI 60 cell line five dose, CNS Cancer
[24] = system: TK-10; experiment: NCI 60 cell line five dose, Renal Cancer

Compound: C=C1C(=O)O[C@H]2[C@H]1CC/C(COC(=O)CCC(=O)NCCCCCCCCCNC(=O)CCC(=O)OC/C1=C/CC[C@@]3(C)O[C@H]3[C@H]3OC(=O)C(=C)[C@@H]3CC1)=C\CC[C@@]1(C)O[C@@H]21 [JVM 2-92, bis(((1aR,7aS,10aS,10bS,E)-1a-Methyl-8-methylene-9-oxo-1a,2,3,6,7,7a,8,9,10a,10b-decahydrooxireno[2′,3′:9,10]cyclodeca[1,2-b]furan-5-yl)methyl)4,4′-(nonane-1,9-diylbis(azanediyl))bis (4-oxobutanoate)]
- GI50 [1]: 370 nM
- TGI [1]: 1360 nM
- GI50 [2]: 860 nM
- TGI [2]: 2180 nM
- GI50 [3]: 330 nM
- TGI [3]: 1170 nM
- GI50 [4]: 1480 nM
- TGI [4]: 3460 nM
- GI50 [5]: 660 nM
- TGI [5]: 2030 nM
- GI50 [6]: 1490 nM
- TGI [6]: 4480 nM
- GI50 [7]: 13800 nM
- TGI [7]: 33700 nM
- GI50 [8]: 1900 nM
- TGI [8]: 4050 nM
- GI50 [9]: 1850 nM
- TGI [9]: 4290 nM
- GI50 [10]: 26700 nM
- TGI [10]: >100000 nM
- GI50 [11]: 2060 nM
- TGI [11]: 5590 nM
- GI50 [12]: 7680 nM
- TGI [12]: 21900 nM
- GI50 [13]: 2230 nM
- TGI [13]: 5130 nM
- GI50 [14]: 2690 nM
- TGI [14]: 10300 nM
- GI50 [15]: 2180 nM
- TGI [15]: 5170 nM
- GI50 [16]: 1940 nM
- TGI [16]: 4170 nM
- GI50 [17]: 1400 nM
- TGI [17]: 3050 nM
- GI50 [18]: 1290 nM
- TGI [18]: 2610 nM
- GI50 [19]: 1220 nM
- TGI [19]: 3160 nM
- GI50 [20]: 2250 nM
- TGI [20]: 4700 nM
- GI50 [21]: 10500 nM
- TGI [21]: 22800 nM
- GI50 [22]: 2720 nM
- TGI [22]: 8300 nM
- GI50 [23]: 3010 nM
- TGI [23]: 9250 nM
- GI50 [24]: 1780 nM
- TGI [24]: 3280 nM

Compound: C=C1C(=O)O[C@H]2[C@H]1CC/C(COC(=O)CCC(=O)NCCCCCCCCNC(=O)CCC(=O)OC/C1=C/CC[C@@]3(C)O[C@H]3[C@H]3OC(=O)C(=C)[C@@H]3CC1)=C\CC[C@@]1(C)O[C@@H]21 [JVM 2-87, bis(((1aR,7aS,10aS,10bS,E)-1a-Methyl-8-methylene-9-oxo-1a,2,3,6,7,7a,8,9,10a,1b-decahydrooxireno[2′,3′:9,10]cyclodeca[1,2-b]furan-5-yl)methyl)4,4′-(octane-1,8-diylbis(azanediyl))bis(4-oxobutanoate)]
- GI50 [1]: 1370 nM
- TGI [1]: 2760 nM
- GI50 [2]: 1540 nM
- TGI [2]: 2880 nM
- GI50 [3]: 410 nM
- TGI [3]: 2100 nM
- GI50 [4]: 1640 nM
- TGI [4]: 3920 nM
- GI50 [5]: 1230 nM
- TGI [5]: 2510 nM
- GI50 [6]: 1510 nM
- TGI [6]: 3860 nM
- GI50 [7]: 18500 nM
- TGI [7]: 40700 nM
- GI50 [8]: 2060 nM
- TGI [8]: 4950 nM
- GI50 [9]: 2430 nM
- TGI [9]: 5760 nM
- GI50 [10]: 33500 nM
- TGI [10]: >100000 nM
- GI50 [11]: 1760 nM
- TGI [11]: 4480 nM
- GI50 [12]: 15100 nM
- TGI [12]: 29300 nM
- GI50 [13]: 2990 nM
- TGI [13]: 8250 nM
- GI50 [14]: 3740 nM
- TGI [14]: 14800 nM
- GI50 [15]: 5000 nM
- TGI [15]: 19900 nM
- GI50 [16]: 2040 nM
- TGI [16]: 4040 nM
- GI50 [17]: 1580 nM
- TGI [17]: 3270 nM
- GI50 [18]: 1500 nM
- TGI [18]: 2820 nM
- GI50 [19]: 1350 nM
- TGI [19]: 3140 nM
- GI50 [20]: 4120 nM
- TGI [20]: 16700 nM
- GI50 [21]: 12700 nM
- TGI [21]: 32000 nM
- GI50 [22]: 6720 nM
- TGI [22]: 20800 nM
- GI50 [23]: 3030 nM
- TGI [23]: 10600 nM
- GI50 [24]: 20800 nM
- TGI [24]: 3940 nM
